The numbers were not newly measured in patent US8632986B2, “Methods and kits for detection of toxemia” (priority 2008, dated 2014), which cites them from elsewhere.

For the series, the target named is albumin (Homo sapiens, UniProt P02768). To be noted: general statement.
Sequence of albumin (P02768 25-609, species assumed): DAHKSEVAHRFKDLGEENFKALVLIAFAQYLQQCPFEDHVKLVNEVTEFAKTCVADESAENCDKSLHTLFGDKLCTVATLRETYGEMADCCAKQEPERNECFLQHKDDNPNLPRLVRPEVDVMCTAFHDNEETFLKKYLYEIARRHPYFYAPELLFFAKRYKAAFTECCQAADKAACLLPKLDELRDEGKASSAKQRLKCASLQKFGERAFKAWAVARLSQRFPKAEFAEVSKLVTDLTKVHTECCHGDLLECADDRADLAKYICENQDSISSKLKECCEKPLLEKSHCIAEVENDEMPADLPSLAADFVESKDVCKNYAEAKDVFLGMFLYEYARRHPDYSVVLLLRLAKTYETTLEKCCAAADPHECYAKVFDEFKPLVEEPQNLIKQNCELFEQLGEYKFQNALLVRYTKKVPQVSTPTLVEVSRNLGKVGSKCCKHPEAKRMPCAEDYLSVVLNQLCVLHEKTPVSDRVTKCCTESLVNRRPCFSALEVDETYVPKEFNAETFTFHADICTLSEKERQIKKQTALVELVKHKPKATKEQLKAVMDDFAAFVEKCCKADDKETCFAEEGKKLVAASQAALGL

Regarding `CCCCCCCCCCCCCCCCCC(=O)O` [unlabeled stearic acid, stearic acid], the binding constant result is listed as “about 10^9 mol^−1”.
